Test results as given in patent US20230340011A1 (Asteroid Therapeutics, priority 2022, published 2023).

Key:
SREBP-2 = SREBP-2 (Homo sapiens (Human), UniProt Q12772); test: In vitro assay SREBP-2: PathHunter U2OS SREBP-2 Nuclear Translocation Cell Line, U18666A-stimulated; type: cell-based; conditions: PathHunter U2OS SREBP-2 nuclear translocation cells, U18666A 10 μM, overnight (16 hours)
LXRβ = LXRβ (Homo sapiens (Human), UniProt P55055); test: In vitro assay LXRβ: PathHunter NHR CHO cells, LXRβ / Steroid Receptor Co-activator Peptide enzyme fragment complementation; type: cell-based; conditions: PathHunter NHR CHO cells, full-length human LXRβ and SRCP, chemiluminescent signal; read-out: LXRβ PPI
Method in brief: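 Enzyme fragment complementation read-out: CHO cells stably expressing ProLink-tagged full-length human LXRβ plus nuclear enzyme acceptor–SRCP fusion, seeded and held overnight at 37° C. Medium with charcoal-dextran filtered serum; final vehicle 1%. Chemiluminescence measured after signal generation.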

Sequence of LXRβ (P55055 whole entry, the tested form may be a part): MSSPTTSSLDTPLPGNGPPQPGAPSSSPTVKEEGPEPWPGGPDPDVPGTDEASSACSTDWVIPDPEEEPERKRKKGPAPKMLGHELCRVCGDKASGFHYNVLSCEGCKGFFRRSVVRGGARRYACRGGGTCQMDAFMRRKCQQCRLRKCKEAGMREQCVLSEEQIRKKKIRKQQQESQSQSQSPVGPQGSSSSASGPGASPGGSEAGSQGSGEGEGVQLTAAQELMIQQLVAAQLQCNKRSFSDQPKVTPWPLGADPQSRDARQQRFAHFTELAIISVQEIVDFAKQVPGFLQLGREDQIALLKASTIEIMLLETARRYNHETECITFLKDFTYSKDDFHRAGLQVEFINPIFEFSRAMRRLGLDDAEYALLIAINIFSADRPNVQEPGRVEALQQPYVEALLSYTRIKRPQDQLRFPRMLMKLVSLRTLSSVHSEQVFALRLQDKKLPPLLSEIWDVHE

SMILES	IC50 (SREBP-2)	EC50 (LXRβ)
CC(=O)N(C)[C@H]1CCN(C(=O)CC[C@@H](C)[C@H]2CC[C@H]3[C@@H]4CC=C5C[C@@H](O)CC[C@]5(C)[C@H]4CC[C@]23C)C1 [Example 321, N—((S)-1-((R)-4-((3S,8S,9S,10R,13R,14S,17R)-3-hydroxy-10,13-dimethyl-2,3,4,7,8,9,10,11,12,13,14,15,16,17-tetradecahydro-1H-cyclopenta[a]phenanthren-17-yl)pentanoyl)pyrrolidin-3-yl)-N-methylacetamide]	< 0.25 µM	> 10 µM
C[C@H](CCC(=O)N1CCN(C(=O)C(C)(C)O)C[C@@H]1C)[C@H]1CC[C@H]2[C@@H]3CC=C4C[C@@H](O)CC[C@]4(C)[C@H]3CC[C@]12C [Example 653, (R)-4-((3S,8S,9S,10R,13R,14S,17R)-3-hydroxy-10,13-dimethyl-2,3,4,7,8,9,10,11,12,13,14,15,16,17-tetradecahydro-1H-cyclopenta[a]phenanthren-17-yl)-1-((S)-4-(2-hydroxy-2-methylpropanoyl)-2-methylpiperazin-1-yl)pentan-1-one]	< 0.25 µM	> 10 µM
C[C@H](CCC(=O)N1CC[C@@H](C(O)(C(F)(F)F)C(F)(F)F)C1)[C@H]1CC[C@H]2[C@@H]3CC=C4C[C@@H](O)CC[C@]4(C)[C@H]3CC[C@]12C [Example 98, (R)-1-((R)-3-(1,1,1,3,3,3-hexafluoro-2-hydroxypropan-2-yl)pyrrolidin-1-yl)-4-((3S,8S,9S,10R,13R,14S,17R)-3-hydroxy-10,13-dimethyl-2,3,4,7,8,9,10,11,12,13,14,15,16,17-tetradecahydro-1H-cyclopenta[a]phenanthren-17-yl)pentan-1-one]	< 0.25 µM	> 10 µM
C[C@H](CCc1nccs1)[C@H]1CC[C@H]2[C@@H]3CC=C4C[C@@H](O)CC[C@]4(C)[C@H]3CC[C@]12C [Example 172, (1R,3aS,3bS,7S,9aR,9bS,11aR)-9a,11a-dimethyl-1-[(2R)-4-(1,3-thiazol-2-yl)butan-2-yl]-1H,2H,3H,3aH,3bH,4H,6H,7H,8H,9H,9aH,9bH,10H,11H,11aH-cyclopenta[a]phenanthren-7-ol]	0.25 to 1 µM	1 to 10 µM
C[C@H](CCC(=O)N1CCN(c2ncncc2C(F)(F)F)CC1)[C@H]1CC[C@H]2[C@@H]3CC=C4C[C@@H](O)CC[C@]4(C)[C@H]3CC[C@]12C [Example 619, (R)-4-((3S,8S,9S,10R,13R,14S,17R)-3-hydroxy-10,13-dimethyl-2,3,4,7,8,9,10,11,12,13,14,15,16,17-tetradecahydro-1H-cyclopenta[a]phenanthren-17-yl)-1-(4-(5-(trifluoromethyl)pyrimidin-4-yl)piperazin-1-yl)pentan-1-one]	< 0.25 µM	> 10 µM
CCN(C)C(=O)N1CCN(C(=O)CC[C@@H](C)[C@H]2CC[C@H]3[C@@H]4CC=C5C[C@@H](O)CC[C@]5(C)[C@H]4CC[C@]23C)CC1 [Example 213, N-ethyl-4-((R)-4-((3S,8S,9S,10R,13R,14S,17R)-3-hydroxy-10,13-dimethyl-2,3,4,7,8,9,10,11,12,13,14,15,16,17-tetradecahydro-1H-cyclopenta[a]phenanthren-17-yl)pentanoyl)-N-methylpiperazine-1-carboxamide]	< 0.25 µM	> 10 µM
C[C@H](CCC(=O)N1CCNS(=O)(=O)CC1)[C@H]1CC[C@H]2[C@@H]3CC=C4C[C@@H](O)CC[C@]4(C)[C@H]3CC[C@]12C [Example 354, 5-[(4R)-4-[(1R,3aS,3bS,7S,9aR,9bS,11aR)-7-hydroxy-9a,11a-dimethyl-1H,2H,3H,3aH,3bH,4H,6H,7H,8H,9H,9aH,9bH,10H,11H,11aH-cyclopenta[a]phenanthren-1-yl]pentanoyl]-1λ^6,2,5-thiadiazepane-1,1-dione]	< 0.25 µM	> 10 µM
COC(=O)N1CCC(N(C)C(=O)CC[C@@H](C)[C@H]2CC[C@H]3[C@@H]4CC=C5C[C@@H](O)CC[C@]5(C)[C@H]4CC[C@]23C)CC1 [Example 643, Methyl 4-[(4R)-4-[(1R,3aS,3bS,7S,9aR,9bS,11aR)-7-hydroxy-9a,11a-dimethyl-1H,2H,3H,3aH,3bH,4H,6H,7H,8H,9H,9aH,9bH,10H,11H,11aH-cyclopenta[a]phenanthren-1-yl]-N-methylpentanamido]piperidine-1-carboxylate]	< 0.25 µM	> 10 µM
C[C@H](CCC(=O)N(C)C)[C@H]1CC[C@H]2[C@@H]3CC=C4C[C@@H](O)CC[C@]4(C)[C@H]3[C@@H](O)C[C@]12C [Example 157, (R)-4-((3S,8S,9S,10R,11S,13R,14S,17R)-3,11-dihydroxy-10,13-dimethyl-2,3,4,7,8,9,10,11,12,13,14,15,16,17-tetradecahydro-1H-cyclopenta[a]phenanthren-17-yl)-N, N-dimethylpentanamide]	0.25 to 1 µM	0.25 to 1 µM
C[C@H](CCC(=O)N1CCN(C(C)(C)C)CC1)[C@H]1CC[C@H]2[C@@H]3CC=C4C[C@@H](O)CC[C@]4(C)[C@H]3CC[C@]12C [Example 557, (4R)-4-[(1R,3aS,3bS,7S,9aR,9bS,11aR)-7-hydroxy-9a,11a-dimethyl-1H,2H,3H,3aH,3bH,4H,6H,7H,8H,9H,9aH,9bH,10H,11H,11aH-cyclopenta[a]phenanthren-1-yl]-1-(4-tert-butylpiperazin-1-yl)pentan-1-one]	0.25 to 1 µM	> 10 µM
C[C@H](CCC(=O)N(C)CCc1nccs1)[C@H]1CC[C@H]2[C@@H]3CC=C4C[C@@H](O)CC[C@]4(C)[C@H]3CC[C@]12C [Example 545, (R)-4-((3S,8S,9S,10R,13R,14S,17R)-3-hydroxy-10,13-dimethyl-2,3,4,7,8,9,10,11,12,13,14,15,16,17-tetradecahydro-1H-cyclopenta[a]phenanthren-17-yl)-N-methyl-N-(2-(thiazol-2-yl)ethyl)pentanamide]	0.25 to 1 µM	0.25 to 1 µM
COc1ccc2ccnc(N3CCN(C(=O)CC[C@@H](C)[C@H]4CC[C@H]5[C@@H]6CC=C7C[C@@H](O)CC[C@]7(C)[C@H]6CC[C@]45C)CC3)c2c1 [Example 627, (R)-4-((3S,8S,9S,10R,13R,14S,17R)-3-hydroxy-10,13-dimethyl-2,3,4,7,8,9,10,11,12,13,14,15,16,17-tetradecahydro-1H-cyclopenta[a]phenanthren-17-yl)-1-(4-(7-methoxyisoquinolin-1-yl)piperazin-1-yl)pentan-1-one]	< 0.25 µM	> 10 µM
C[C@H](CCc1ccccn1)[C@H]1CC[C@H]2[C@@H]3CC=C4C[C@@](C)(O)CC[C@]4(C)[C@H]3CC[C@]12C [Example 369, (3S,8S,9S,10R,13R,14S,17R)-3,10,13-trimethyl-17-((R)-4-(pyridin-2-yl)butan-2-yl)-2,3,4,7,8,9,10,11,12,13,14,15,16,17-tetradecahydro-1H-cyclopenta[a]phenanthren-3-ol]	0.25 to 1 µM	1 to 10 µM
COc1ccccc1N1CCN(C(=O)CC[C@@H](C)[C@H]2CC[C@H]3[C@@H]4CC=C5C[C@@H](O)CC[C@]5(C)[C@H]4CC[C@]23C)CC1 [Example 624, (R)-4-((3S,8S,9S,10R,13R,14S,17R)-3-hydroxy-10,13-dimethyl-2,3,4,7,8,9,10,11,12,13,14,15,16,17-tetradecahydro-1H-cyclopenta[a]phenanthren-17-yl)-1-(4-(2-methoxyphenyl)piperazin-1-yl)pentan-1-one]	< 0.25 µM	> 10 µM
Cc1nnc(N2CCN(C(=O)CC[C@@H](C)[C@H]3CC[C@H]4[C@@H]5CC=C6C[C@@H](O)CC[C@]6(C)[C@H]5CC[C@]34C)[C@@H](C)C2)o1 [Example 635, (R)-4-((3S,8S,9S,10R,13R,14S,17R)-3-hydroxy-10,13-dimethyl-2,3,4,7,8,9,10,11,12,13,14,15,16,17-tetradecahydro-1H-cyclopenta[a]phenanthren-17-yl)-1-((S)-2-methyl-4-(5-methyl-1,3,4-oxadiazol-2-yl)piperazin-1-yl)pentan-1-one]	< 0.25 µM	> 10 µM
Cc1cc(N2CCN(C(=O)CC[C@@H](C)[C@H]3CC[C@H]4[C@@H]5CC=C6C[C@@H](O)CC[C@]6(C)[C@H]5CC[C@]34C)CC2)sn1 [Example 497, (R)-4-((3S,8S,9S,10R,13R,14S,17R)-3-hydroxy-10,13-dimethyl-2,3,4,7,8,9,10,11,12,13,14,15,16,17-tetradecahydro-1H-cyclopenta[a]phenanthren-17-yl)-1-(4-(3-methylisothiazol-5-yl)piperazin-1-yl)pentan-1-one]	< 0.25 µM	> 10 µM
CC(=O)N[C@@H]1CCN(C(=O)CC[C@@H](C)[C@H]2CC[C@H]3[C@@H]4CC=C5C[C@@H](O)CC[C@]5(C)[C@H]4CC[C@]23C)C1 [Example 324, N-[(3R)-1-[(4R)-4-[(1R,3aS,3bS,7S,9aR,9bS,11aR)-7-hydroxy-9a,11a-dimethyl-1H,2H,3H,3aH,3bH,4H,6H,7H,8H,9H,9aH,9bH,10H,11H,11aH-cyclopenta[a]phenanthren-1-yl]pentanoyl]pyrrolidin-3-yl]acetamide]	0.25 to 1 µM	> 10 µM
Cc1ccnc(CC[C@@H](C)[C@H]2CC[C@H]3[C@@H]4CC=C5C[C@@H](O)CC[C@]5(C)[C@H]4CC[C@]23C)n1 [Example 191, (3S,8S,9S,10R,13R,14S,17R)-10,13-dimethyl-17-((R)-4-(4-methylpyrimidin-2-yl)butan-2-yl)-2,3,4,7,8,9,10,11,12,13,14,15,16,17-tetradecahydro-1H-cyclopenta[a]phenanthren-3-ol]	< 0.25 µM	0.25 to 1 µM
